Experimental data published in US9771343B2, “2-alkyl-or-aryl-substituted tanshinone derivatives, and preparation method and application thereof” (Hangzhou Bensheng Pharmaceutical Co., Ltd., priority 2011, dated 2017).
Values after ≈ are worked out from the molar mass of the structure shown.

Columns and labels:
[1] = test system: K562/adr (drug-resistant, chronic myeloid leukemia, CML); assay: MTT cell growth inhibition, K562/adr leukemia cells, 72 h; format: cell-based; settings: Homo sapiens, K562/Adr
Experimental: (§1) The standard sample of tanshinone I (TA) and the 2-alkyl- or 2-aromatic-substituted tanshinone I derivatives of the present invention are sufficiently dissolved in dimethylsulfoxide to produce a stock solution of 10 mg/mL, which is refrigerated at 4° C. and stored in dark, and is diluted with cell culture medium to a desired concentration prior to experimentation.
(§2) Obtaining 6000 well-growing leukemia cells and inoculating them into wells of a 96-well cell culture plate. The culture medium is the RPMI-1640 cell culture medium containing 10% fetal bovine serum. After adding on the second day the 2-alkyl- or 2-aromatic-substituted tanshinone I derivatives of different concentrations and mixing uniformly, placing the plate in a carbon dioxide cell incubator (5% CO2) at 37° C. and incubated for 72 hours. Then the viable cell concentration is determined by MTT method. In this experiment, the cell viability in control group (not treated with any compound) is set as 100%, and the cell viability (%) after treatment by the compounds and the half maximum inhibitory concentration for the leukemia cell at 72 hours (IC50 value of 72 hours, μg/mL) are calculated.

[2] = test system: Kasumi-1 (acute myeloid leukemia M2 type, AML-M2); assay: MTT cell growth inhibition, Kasumi-1 leukemia cells, 72 h; format: cell-based; settings: Homo sapiens, Kasumi-1, 72 h
Experimental: as §1, §2

[3] = test system: NB4 (acute promyelocytic leukemia, AML); assay: MTT cell growth inhibition, NB4 leukemia cells, 72 h; format: cell-based; settings: NB4, 72 h
Experimental: as §1, §2

[4] = test system: Jurkat (acute lymphoblastic leukemia, ALL); assay: MTT cell growth inhibition, Jurkat leukemia cells, 72 h; format: cell-based; settings: Homo sapiens, 72 h
Experimental: as §1, §2

[5] = test system: H9 (acute lymphoblastic leukemia, ALL); assay: MTT cell growth inhibition, H9 leukemia cells, 72 h; format: cell-based; settings: H9, 72 h
Experimental: as §1, §2

[6] = test system: RPMI8226 (multiple myeloma); assay: MTT cell growth inhibition, RPMI8226 multiple myeloma cells, 72 h; format: cell-based, human; settings: Homo sapiens, RPMI 8226, 72 h
Experimental: as §1, §2

A549 (human lung cancer) = assay: MTT cell growth inhibition, A549 cells, 72 h; format: cell-based; settings: Homo sapiens, A549, 72 h
Experimental: as §1, with “with a” for “with”, “to the” for “to a”
(§3) Obtaining 6000 well-growing human solid tumor cells and inoculating them into wells of a 96-well cell culture plate. The culture medium is DMEM High Glucose cell culture medium containing 10% fetal bovine serum. The plate is placed in a carbon dioxide cell incubator (5% CO2) at 37° C. and incubated for 24 hours. After adding the 2-alkyl- or 2-aromatic-substituted tanshinone I derivatives of different concentrations and mixing uniformly, the plate is placed in a carbon dioxide cell incubator (5% CO2) at 37° C. and incubated for 72 hours. Then the viable cell concentration is determined by MTT method. In this experiment, the cell viability in control group (not treated with any compound) is set as 100%, and the cell viability (%) after treatment by the compounds and the half maximum inhibitory concentration for the leukemia cell at 72 hours (IC50 value of 72 hours, μg/mL) are calculated.

[7] = test system: PANC-1 (pancreatic cancer); assay: MTT cell growth inhibition, PANC-1 cells, 72 h; format: cell-based, human; settings: Homo sapiens, PANC-1, 72 h
Experimental: as §1, with “with a” for “with”, “to the” for “to a”
as §3

[8] = test system: Becap37 (human breast cancer cell); assay: MTT cell growth inhibition, Becap37 cells, 72 h; format: cell-based; settings: Homo sapiens, Becap-37, 72 h
Experimental: as §1, with “with a” for “with”, “to the” for “to a”
as §3

MG63 (osteosarcoma) = assay: MTT cell growth inhibition, MG63 cells, 72 h; format: cell-based, human; settings: Homo sapiens, MG-63, 72 h
Experimental: as §1, with “with a” for “with”, “to the” for “to a”
as §3

[9] = test system: Hep G2 (human liver cancer cell); assay: MTT cell growth inhibition, Hep G2 cells, 72 h; format: cell-based; settings: Homo sapiens, HepG2, Hep G2, 72 h
Experimental: as §1, with “with a” for “with”, “to the” for “to a”
as §3

[10] = test system: RKO (human colon adenocarcinoma cell); assay: MTT cell growth inhibition, RKO cells, 72 h; format: cell-based; settings: Homo sapiens, RKO, 72 h
Experimental: as §1, with “with a” for “with”, “to the” for “to a”
as §3

[11] = test system: U87 MG (malignant glioma cell); assay: MTT cell growth inhibition, U87 MG cells, 72 h; format: cell-based, human
Experimental: as §1, with “with a” for “with”, “to the” for “to a”
as §3

[12] = test system: Hela (human cervical cancer cell); assay: MTT cell growth inhibition, Hela cells, 72 h; format: cell-based; settings: Homo sapiens, HeLa, 72 h
Experimental: as §1, with “with a” for “with”, “to the” for “to a”
as §3

[13] = test system: CaES-17 (esophageal cancer cell); assay: MTT cell growth inhibition, CaES-17 cells, 72 h; format: cell-based, human; settings: Homo sapiens, CaEs17, CaEs-17, 72 h
Experimental: as §1, with “with a” for “with”, “to the” for “to a”
as §3

[14] = test system: CNE (nasopharyngeal carcinoma cell); assay: MTT cell growth inhibition, CNE cells, 72 h; format: cell-based, human; settings: Homo sapiens, CNE, 72 h
Experimental: as §1, with “with a” for “with”, “to the” for “to a”
as §3

[15] = test system: Hep-2 (laryngeal carcinoma); assay: MTT cell growth inhibition, Hep-2 cells, 72 h; format: cell-based, human; settings: Homo sapiens, HEp-2, 72 h
Experimental: as §1, with “with a” for “with”, “to the” for “to a”
as §3

[16] = test system: MGC 803 (human gastric cancer cell); assay: MTT cell growth inhibition, MGC 803 cells, 72 h; format: cell-based; settings: Homo sapiens, MGC-803, 72 h
Experimental: as §1, with “with a” for “with”, “to the” for “to a”
as §3

PC-3 (prostate cancer) = assay: MTT cell growth inhibition, PC-3 cells, 72 h; format: cell-based, human; settings: Homo sapiens, PC-3, 72 h
Experimental: as §1, with “with a” for “with”, “to the” for “to a”
as §3

[17] = test system: SK-OV-3 (ovarian cancer cell); assay: MTT cell growth inhibition, SK-OV-3 cells, 72 h; format: cell-based, human; settings: Homo sapiens, SK-OV-3, 72 h
Experimental: as §1, with “with a” for “with”, “to the” for “to a”
as §3

IC50 ([1]; read-out: IC50): 15.5 µg/mL (≈ 40.1 µM) | IC90 ([1]; read-out: IC90): > 16 µg/mL | IC50 ([2]; read-out: IC50): > 16 µg/mL | IC90 ([2]; read-out: IC90): > 16 µg/mL | IC50 ([3]; read-out: IC50): 4.09 µg/mL (≈ 10.6 µM) | IC90 ([3]; read-out: IC90): 11.2 µg/mL (≈ 29 µM) | IC50 ([4]; read-out: IC50): 4.83 µg/mL (≈ 12.5 µM) | IC90 ([4]; read-out: IC90): 9.72 µg/mL (≈ 25.1 µM) | IC50 ([5]; read-out: IC50): 6.7 µg/mL (≈ 17.3 µM) | IC90 ([5]; read-out: IC90): > 16 µg/mL | IC50 ([6]; read-out: IC50): 4 µg/mL (≈ 10.3 µM) | IC90 ([6]; read-out: IC90): 16.1 µg/mL (≈ 41.5 µM) | IC50 (A549 (human lung cancer); read-out: IC50): 6.92 µg/mL (≈ 17.9 µM) | IC90 (A549 (human lung cancer); read-out: IC90): > 16 µg/mL | IC50 ([7]; read-out: IC50): 9.8 µg/mL (≈ 25.3 µM) | IC90 ([7]; read-out: IC90): > 16 µg/mL | IC50 ([8]; read-out: IC50): 9.34 µg/mL (≈ 24.1 µM) | IC90 ([8]; read-out: IC90): > 16 µg/mL | IC50 (MG63 (osteosarcoma); read-out: IC50): 10.3 µg/mL (≈ 26.7 µM) | IC90 (MG63 (osteosarcoma); read-out: IC90): > 16 µg/mL | IC50 ([9]; read-out: IC50): 14.5 µg/mL (≈ 37.4 µM) | IC90 ([9]; read-out: IC90): > 16 µg/mL | IC50 ([10]; read-out: IC50): 5.01 µg/mL (≈ 13 µM) | IC90 ([10]; read-out: IC90): > 16 µg/mL | IC50 ([11]; Homo sapiens, U-87 MG, U87-MG, 72 h, read-out: IC50): 5.73 µg/mL (≈ 14.8 µM) | IC90 ([11]; Homo sapiens, U-87 MG, U87-MG, 72 h, read-out: IC90): 19.2 µg/mL (≈ 49.6 µM) | IC50 ([12]; read-out: IC50): 5.5 µg/mL (≈ 14.2 µM) | IC90 ([12]; read-out: IC90): 22.2 µg/mL (≈ 57.4 µM) | IC50 ([13]; read-out: IC50): 11 µg/mL (≈ 28.5 µM) | IC90 ([13]; read-out: IC90): 28.8 µg/mL (≈ 74.5 µM) | IC50 ([14]; read-out: IC50): 10.5 µg/mL (≈ 27.1 µM) | IC90 ([14]; read-out: IC90): > 16 µg/mL | IC50 ([15]; read-out: IC50): 11.6 µg/mL (≈ 30.1 µM) | IC90 ([15]; read-out: IC90): > 16 µg/mL | IC50 ([16]; read-out: IC50): 8.88 µg/mL (≈ 23 µM) | IC90 ([16]; read-out: IC90): 23.9 µg/mL (≈ 61.9 µM) | IC50 (PC-3 (prostate cancer); read-out: IC50): > 16 µg/mL | IC90 (PC-3 (prostate cancer); read-out: IC90): > 16 µg/mL | IC50 ([17]; read-out: IC50): > 16 µg/mL | IC90 ([17]; read-out: IC90): > 16 µg/mL
SMILES: Cc1c(-c2ccccc2Cl)oc2c1C(=O)C(=O)c1c-2ccc2c(C)cccc12 [BS-TA-04]
anti-U87 MG activity (in words) ([11]; Table 2): superior to that of tanshinone I per se
